# Measurements: PubChem BioAssay (NCI)
#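 GI50 = concentration required for 50% inhibition of growth. TGI is the concentration that stops growth completely.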
# Key:
# Assay in all cases: growth of human tumour cells (NCI), 384-well format
# NCI-H322M lung = test system: NCI-H322M lung
# OVCAR-8 ovarian = test system: OVCAR-8 ovarian
# UACC-257 melanoma = test system: UACC-257 melanoma
# COLO 205 colon = test system: COLO 205 colon
# HL-60(TB) leukemia = test system: HL-60(TB) leukemia
# NCI/ADR-RES ovarian = test system: NCI/ADR-RES ovarian
# MCF7 breast = test system: MCF7 breast
# SN12C renal = test system: SN12C renal
# SNB-75 CNS = test system: SNB-75 CNS
# A498 renal = test system: A498 renal
# OVCAR-4 ovarian = test system: OVCAR-4 ovarian
# ACHN renal = test system: ACHN renal
# CCRF-CEM leukemia = test system: CCRF-CEM leukemia
# SF-268 CNS = test system: SF-268 CNS
# HOP-62 NSCLC = test system: HOP-62 NSCLC
# PC-3 prostate = test system: PC-3 prostate
# 786-0 renal = test system: 786-0 renal
# SK-MEL-5 melanoma = test system: SK-MEL-5 melanoma
# MDA-MB-468 breast = test system: MDA-MB-468 breast
# HS 578T breast = test system: HS 578T breast
# RXF 393 renal = test system: RXF 393 renal
# SNB-19 CNS = test system: SNB-19 CNS
# EKVX NSCLC = test system: EKVX NSCLC
# SF-295 CNS = test system: SF-295 CNS
# HCC-2998 colon = test system: HCC-2998 colon
# SF-539 CNS = test system: SF-539 CNS
# IGROV1 ovarian = test system: IGROV1 ovarian
# SK-MEL-28 melanoma = test system: SK-MEL-28 melanoma
# MDA-MB-435 melanoma = test system: MDA-MB-435 melanoma
# OVCAR-5 ovarian = test system: OVCAR-5 ovarian
# CAKI-1 renal = test system: CAKI-1 renal
# KM12 colon = test system: KM12 colon
# LOX IMVI melanoma = test system: LOX IMVI melanoma
# HOP-92 NSCLC = test system: HOP-92 NSCLC
# OVCAR-3 ovarian = test system: OVCAR-3 ovarian
# A549 NSCLC = test system: A549 NSCLC
# HT29 colon = test system: HT29 colon
# SW-620 colon = test system: SW-620 colon
# M14 melanoma = test system: M14 melanoma
# MDA-MB-231 breast = test system: MDA-MB-231 breast
# SR leukemia = test system: SR leukemia
# RPMI-8226 leukemia = test system: RPMI-8226 leukemia
# UACC-62 melanoma = test system: UACC-62 melanoma
# BT-549 breast = test system: BT-549 breast
# K-562 leukemia = test system: K-562 leukemia
# SK-OV-3 ovarian = test system: SK-OV-3 ovarian
# MOLT-4 leukemia = test system: MOLT-4 leukemia
# NCI-H23 lung = test system: NCI-H23 lung
# DU-145 prostate = test system: DU-145 prostate
# NCI-H226 lung = test system: NCI-H226 lung
# NCI-H522 lung = test system: NCI-H522 lung
# TK-10 renal = test system: TK-10 renal
# HCT-15 colon = test system: HCT-15 colon
# NCI-H460 NSCLC = test system: NCI-H460 NSCLC
# MALME-3M melanoma = test system: MALME-3M melanoma
# UO-31 renal = test system: UO-31 renal
# T-47D breast = test system: T-47D breast
smiles,measurement,setting,value
C=CC(=O)N1CCN(c2ncnc3c(F)c(-c4c(O)cccc4F)c(Cl)cc23)CC1,GI50,NCI-H322M lung,3.22 µM
same,TGI,NCI-H322M lung,10.3 µM
same,GI50,OVCAR-8 ovarian,2460 nM
same,TGI,OVCAR-8 ovarian,6.4 µM
same,GI50,UACC-257 melanoma,3.65 µM
same,TGI,UACC-257 melanoma,9.18 µM
same,GI50,COLO 205 colon,2330 nM
same,TGI,COLO 205 colon,5.19 µM
same,GI50,HL-60(TB) leukemia,1680 nM
same,TGI,HL-60(TB) leukemia,3.08 µM
same,GI50,NCI/ADR-RES ovarian,14 µM
same,TGI,NCI/ADR-RES ovarian,28.3 µM
same,GI50,MCF7 breast,2950 nM
same,TGI,MCF7 breast,9.01 µM
same,GI50,SN12C renal,4.48 µM
same,TGI,SN12C renal,15.4 µM
same,GI50,SNB-75 CNS,3.41 µM
same,TGI,SNB-75 CNS,16.7 µM
same,GI50,A498 renal,2050 nM
same,TGI,A498 renal,6.37 µM
same,GI50,OVCAR-4 ovarian,5.97 µM
same,TGI,OVCAR-4 ovarian,18.2 µM
same,GI50,ACHN renal,2270 nM
same,TGI,ACHN renal,5.89 µM
same,GI50,CCRF-CEM leukemia,1830 nM
same,TGI,CCRF-CEM leukemia,3.34 µM
same,GI50,SF-268 CNS,2090 nM
same,TGI,SF-268 CNS,5.38 µM
same,GI50,HOP-62 NSCLC,1210 nM
same,TGI,HOP-62 NSCLC,4.8 µM
same,GI50,PC-3 prostate,2640 nM
same,TGI,PC-3 prostate,8.13 µM
same,GI50,786-0 renal,3.34 µM
same,TGI,786-0 renal,12.4 µM
same,GI50,SK-MEL-5 melanoma,2390 nM
same,TGI,SK-MEL-5 melanoma,5.66 µM
same,GI50,MDA-MB-468 breast,2340 nM
same,TGI,MDA-MB-468 breast,4.63 µM
same,GI50,HS 578T breast,1710 nM
same,TGI,HS 578T breast,3.87 µM
same,GI50,RXF 393 renal,1910 nM
same,TGI,RXF 393 renal,4.03 µM
same,GI50,SNB-19 CNS,4.08 µM
same,TGI,SNB-19 CNS,14.9 µM
same,GI50,EKVX NSCLC,5.74 µM
same,TGI,EKVX NSCLC,18 µM
same,GI50,SF-295 CNS,2970 nM
same,TGI,SF-295 CNS,8.83 µM
same,GI50,HCC-2998 colon,2270 nM
same,TGI,HCC-2998 colon,4.32 µM
same,GI50,SF-539 CNS,2400 nM
same,TGI,SF-539 CNS,5.02 µM
same,GI50,IGROV1 ovarian,3.5 µM
same,TGI,IGROV1 ovarian,11.8 µM
same,GI50,SK-MEL-28 melanoma,3.17 µM
same,TGI,SK-MEL-28 melanoma,13.7 µM
same,GI50,MDA-MB-435 melanoma,3.91 µM
same,TGI,MDA-MB-435 melanoma,13.9 µM
same,GI50,OVCAR-5 ovarian,3.66 µM
same,TGI,OVCAR-5 ovarian,11.9 µM
same,GI50,CAKI-1 renal,3.07 µM
same,TGI,CAKI-1 renal,12.9 µM
same,GI50,KM12 colon,2920 nM
same,TGI,KM12 colon,9.85 µM
same,GI50,LOX IMVI melanoma,2080 nM
same,TGI,LOX IMVI melanoma,5.21 µM
same,GI50,HOP-92 NSCLC,4.73 µM
same,TGI,HOP-92 NSCLC,16.8 µM
same,GI50,OVCAR-3 ovarian,1830 nM
same,TGI,OVCAR-3 ovarian,3.9 µM
same,GI50,A549 NSCLC,2360 nM
same,TGI,A549 NSCLC,5.74 µM
same,GI50,HT29 colon,2970 nM
same,TGI,HT29 colon,8.72 µM
same,GI50,SW-620 colon,3.78 µM
same,TGI,SW-620 colon,11.3 µM
same,GI50,M14 melanoma,1980 nM
same,TGI,M14 melanoma,4.68 µM
same,GI50,MDA-MB-231 breast,5.17 µM
same,TGI,MDA-MB-231 breast,18.5 µM
same,GI50,SR leukemia,1000 nM
same,TGI,SR leukemia,2180 nM
same,GI50,RPMI-8226 leukemia,1600 nM
same,TGI,RPMI-8226 leukemia,3000 nM
same,GI50,UACC-62 melanoma,1590 nM
same,TGI,UACC-62 melanoma,4.76 µM
same,GI50,BT-549 breast,1730 nM
same,TGI,BT-549 breast,4.14 µM
same,GI50,K-562 leukemia,5.53 µM
same,TGI,K-562 leukemia,18.1 µM
same,GI50,SK-OV-3 ovarian,4.14 µM
same,TGI,SK-OV-3 ovarian,16.1 µM
same,GI50,MOLT-4 leukemia,2080 nM
same,TGI,MOLT-4 leukemia,3.62 µM
same,GI50,NCI-H23 lung,69.4 nM
same,TGI,NCI-H23 lung,940 nM
same,GI50,DU-145 prostate,3.5 µM
same,TGI,DU-145 prostate,12.5 µM
same,GI50,NCI-H226 lung,2390 nM
same,TGI,NCI-H226 lung,7.65 µM
same,GI50,NCI-H522 lung,3.1 µM
same,TGI,NCI-H522 lung,8.43 µM
same,GI50,TK-10 renal,8.84 µM
same,TGI,TK-10 renal,30.7 µM
same,GI50,HCT-15 colon,2500 nM
same,TGI,HCT-15 colon,6.08 µM
same,GI50,NCI-H460 NSCLC,2780 nM
same,TGI,NCI-H460 NSCLC,7.79 µM
same,GI50,MALME-3M melanoma,3.58 µM
same,TGI,MALME-3M melanoma,9.59 µM
same,GI50,UO-31 renal,3.58 µM
same,TGI,UO-31 renal,12.5 µM
same,GI50,T-47D breast,6.31 µM
same,TGI,T-47D breast,18.4 µM
